Assay results from paper PMC7349657, “Efficient Targeted Degradation via Reversible and Irreversible Covalent PROTACs” (Journal of the American Chemical Society, 2020).

Legend:
BTK [1] = target: T1, BTK (Homo sapiens, UniProt Q06187); test: BTK degradation in patient-derived primary CLL cells (Western blot); assay type: cell-based; design: endogenous in cells; details: 18 h
Method: To assess the PROTACs’ efficiency in a clinically relevant model, we tested their ability to induce BTK degradation in primary cells from chronic lymphocytic leukemia (CLL) patients.
Figure 4 Degradation of BTK in patient-derived CLL cells. Patient-derived primary CLL cells were treated with BTK PROTACs for 18 h, followed by measuring BTK levels via Western blot. M-IGHV/UM-IGHV: mutated/unmutated immunoglobulin heavy chain variable region (IGHV) gene.
The LC–MS/MS instrument consi sted of an Acquit y I-class UPLC system (Waters) and Xevo TQ-XS triple quadrupole mass spectrometer (Waters) equipped with an electrospray ion source. Chromatographic separation was done on UPLC BEH C18 column (50mm × 2.1mm, 1.7-µm, Waters) using 50-100% gradient of 95%-aqueous acetonitrile with 0.1% formic acid in aqueous 0.1% formic acid during 2.5 minut e s, with a flow rate of 0. 3 mL min−1 and column temperature 30°C. Samples kept at 10°C were automatically injected in a volume of 3µl.
MS parameters (positive ion mode): capillary voltage - 2. 0kV, source temperature - […]
Targeting BTK in CLL cells […]
Following incubation with PROTACs as detailed, cells were collected and lysed in cell lysis buffer (Cell Signaling Technology, Beverly, MA) containing Phosphatase Inhibitor Cocktail 2 and protease inhibitor Cocktail (Sigma-Aldrich, St. Louis, MO). […] Bands were detected using MyECL Imager (Thermo Scientific, […]

BTK [2] = target: T1, BTK; test: Mechanism validation: pretreatment with ibrutinib, thalidomide-OH or bortezomib before PROTAC in Mino cells; assay type: cell-based; design: endogenous in cells; host or cells: Mino (ATCC CRL-3000), Ramos (ATCC CRL-1596), K562 (NCI-60); details: 2 h pretreatment, then PROTAC 24 h

T1 sequence (Q06187 whole entry): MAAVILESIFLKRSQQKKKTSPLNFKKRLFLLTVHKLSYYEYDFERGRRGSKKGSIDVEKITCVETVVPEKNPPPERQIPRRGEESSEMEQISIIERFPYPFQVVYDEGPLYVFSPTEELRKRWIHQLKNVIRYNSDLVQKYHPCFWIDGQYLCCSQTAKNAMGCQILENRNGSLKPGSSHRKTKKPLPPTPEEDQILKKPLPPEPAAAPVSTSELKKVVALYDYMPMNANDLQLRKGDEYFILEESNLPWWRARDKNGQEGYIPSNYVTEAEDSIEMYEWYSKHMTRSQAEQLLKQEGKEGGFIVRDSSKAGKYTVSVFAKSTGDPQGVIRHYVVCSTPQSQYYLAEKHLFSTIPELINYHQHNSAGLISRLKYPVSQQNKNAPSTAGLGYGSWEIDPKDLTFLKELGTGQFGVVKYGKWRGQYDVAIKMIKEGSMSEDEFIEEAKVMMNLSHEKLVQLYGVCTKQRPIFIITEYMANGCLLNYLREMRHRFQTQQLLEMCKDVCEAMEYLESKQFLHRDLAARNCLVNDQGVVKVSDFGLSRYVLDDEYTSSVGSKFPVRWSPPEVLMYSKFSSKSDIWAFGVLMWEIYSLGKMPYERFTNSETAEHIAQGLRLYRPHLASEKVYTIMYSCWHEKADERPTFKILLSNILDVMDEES

Row | Compound | BTK degradation level (BTK [1]) | BTK degradation after thalidomide-OH pretreatment (BTK [2])
1 | Nc1ncnc2c1c(-c1ccc(Oc3ccccc3)cc1)nn2C1CCCN(C(=O)C=CCCCCOCCOCCOCCOCCOc2cccc3c2C(=O)N(C2CCC(=O)NC2=O)C3=O)C1 (stereo not drawn) [IR-2] | higher degradation levels than RC-2 and RC-3 | 
2 | Nc1ncnc2c1c(-c1ccc(Oc3ccccc3)cc1)nn2C1CCCN(C(=O)CCCCCCOCCOCCOCCOCCOc2cccc3c2C(=O)N(C2CCC(=O)NC2=O)C3=O)C1 (stereo not drawn) [NC-1] | higher degradation levels than RC-2 and RC-3 | only slightly hindered by thalidomide
